# Assays:
# cocklebur = test: Test B pre/postemergence cocklebur; type: in vivo, Xanthium strumarium
# Method in brief: (§1)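 Test chemicals in a non-phytotoxic solvent mixture with surfactant were sprayed preemergence onto planted seeds and postemergence onto plants 2 to 18 cm tall (1- to 4-leaf stage). After twelve to sixteen days in a greenhouse, injury was visually rated against untreated controls from 0 (no effect) to 10 (complete control).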
# rice = test: Test B flood test rice; type: in vivo, Oryza sativa
# Method in brief: (§2)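 Read-out is a visual response score from 0 (no effect) to 10 (complete control), assigned by comparison with untreated controls. Treatment was applied at the 2-leaf stage, and plants stayed in the greenhouse for twelve to sixteen days before scoring.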
# wild oat = test: Test B pre/postemergence wild oat; type: in vivo, Avena fatua
# Method in brief: as §1
# sugar beet = test: Test B pre/postemergence sugar beet; type: in vivo, Beta vulgaris
# Method in brief: as §1
# pigweed = test: Test B pre/postemergence pigweed; type: in vivo, Amaranthus retroflexus
# Method in brief: as §1
# surinam grass = test: Test B pre/postemergence surinam grass; type: in vivo, Brachiaria decumbens
# Method in brief: as §1
# crabgrass = test: Test B pre/postemergence crabgrass; type: in vivo, Digitaria sanguinalis
# Method in brief: as §1
# velvetleaf = test: Test B pre/postemergence velvetleaf; type: in vivo, Abutilon theophrasti
# Method in brief: as §1
# blackgrass = test: Test B pre/postemergence blackgrass; type: in vivo, Alopecurus myosuroides
# Method in brief: as §1
# duck salad = test: Test B flood test duck salad; type: in vivo, Heteranthera limosa
# Method in brief: as §2
# purple nutsedge = test: Test B pre/postemergence purple nutsedge; type: in vivo, Cyperus rotundus
# Method in brief: as §1
# bamyardgrass = test: Test B flood test barnyardgrass; type: in vivo, Echinochloa crus-galli
# Method in brief: as §2
# wheat = test: Test B pre/postemergence wheat; type: in vivo, Triticum aestivum
# Method in brief: as §1
# morningglory = test: Test B pre/postemergence morningglory; type: in vivo, Ipomoea hederacea
# Method in brief: as §1
# giant foxtail = test: Test B pre/postemergence giant foxtail; type: in vivo, Setaria faberii
# Method in brief: as §1
# bedstraw = test: Test B pre/postemergence bedstraw; type: in vivo, Galium aparine; settings: for Bedstraw plant response rating: Rate 62 g/ha
# Method in brief: as §1
# [1] = Postemergence, Rate 125 g/ha, scale 0 to 10, 0 is no effect, 10 is complete control
# [2] = Preemergence, Rate 250 g/ha, scale of 0 to 10 where 0 is no effect and 10 is complete control
# [3] = Preemergence, Rate 500 g/ha, scale of 0 to 10 where 0 is no effect and 10 is complete control
# [4] = Rate 62 g/ha, Postemergence, scale 0 to 10 (0 no effect, 10 complete control)
# [5] = Rate 250 g/ha, Postemergence, scale of 0 to 10 where 0 is no effect and 10 is complete control
# [6] = Rate 500 g/ha, Postemergence, scale 0 to 10, 0 no effect, 10 complete control
# [7] = Rate 62 g/ha, headed Pre-emergence (flood test species), scale 0 to 10 (0 no effect, 10 complete control)
# [8] = Rate 125 g/ha, Pre-emergence, flood test species, scale 0 to 10 where 0 is no effect and 10 is complete control
# [9] = Rate 250 g/ha, Pre-emergence, flood-test species, scale 0 to 10, 0 is no effect, 10 is complete control
# [10] = Rate 500 g/ha, Pre-emergence, flood test species, scale 0 to 10 (0 no effect, 10 complete control)
# [11] = Preemergence, Rate 62 g/ha, scale of 0 to 10 where 0 is no effect and 10 is complete control
structure (smiles),measurement,setting,value
CC(C)N(C(=O)n1oc(=O)n(C2CC3CCC2C3)c1=O)c1ccccc1 (stereo not shown) [Compound 328],"Plant response rating, Cocklebur",cocklebur; [1],0
same,Cocklebur plant response rating (0 to 10 scale),"cocklebur; Preemergence, Rate 125 g/ha",0
same,Cocklebur plant response rating,cocklebur; [2],0
same,Cocklebur plant response rating,cocklebur; [3],0
same,Cocklebur plant response rating,cocklebur; [4],0
same,"Plant response rating, Cocklebur",cocklebur; [5],0
same,"Plant response rating, Cocklebur",cocklebur; [6],0
same,Rice plant response rating,rice; [7],0
same,Rice plant response rating,rice; [8],0
same,Rice plant response rating,rice; [9],0
same,Rice plant response rating,rice; [10],7
same,"Plant response rating, Wild oats",wild oat; [1],0
same,Wild oats plant response rating,wild oat; [11],0
same,Wild oats plant response rating (0 to 10 scale),"wild oat; Preemergence, Rate 125 g/ha",0
same,Wild oats plant response rating,wild oat; [2],0
same,Wild oats plant response rating,wild oat; [3],1
same,Wild oats plant response rating,wild oat; [4],0
same,"Plant response rating, Wild oats",wild oat; [5],0
same,"Plant response rating, Wild oats",wild oat; [6],0
same,"Plant response rating, Sugarbeets",sugar beet; [1],0
same,Sugarbeets plant response rating,sugar beet; [11],0
same,Sugarbeets plant response rating (0 to 10 scale),"sugar beet; Preemergence, Rate 125 g/ha",0
same,Sugarbeets plant response rating,sugar beet; [2],0
same,Sugarbeets plant response rating,sugar beet; [3],0
same,Sugarbeets plant response rating,sugar beet; [4],0
same,"Plant response rating, Sugarbeets",sugar beet; [5],0
same,"Plant response rating, Sugarbeets",sugar beet; [6],0
same,"Plant response rating, Redroot pigweed",pigweed; [1],3
same,Redroot pigweed plant response rating,pigweed; [11],0
same,Redroot pigweed plant response rating (0 to 10 scale),"pigweed; Preemergence, Rate 125 g/ha",0
same,Redroot pigweed plant response rating,pigweed; [2],0
same,Redroot pigweed plant response rating,pigweed; [3],4
same,Redroot pigweed plant response rating,pigweed; [4],2
same,"Plant response rating, Redroot pigweed",pigweed; [5],3
same,"Plant response rating, Redroot pigweed",pigweed; [6],5
same,"Plant response rating, B. signalgrass",surinam grass; [1],0
same,B. signalgrass plant response rating,surinam grass; [11],0
same,"B. signalgrass plant response rating (0 to 10 scale, 0 is no effect, 10 is complete control)","surinam grass; Preemergence, Rate 125 g/ha",0
same,B. signalgrass plant response rating,surinam grass; [2],0
same,B. signalgrass plant response rating,surinam grass; [3],5
same,B. signalgrass plant response rating,surinam grass; [4],0
same,"Plant response rating, B. signalgrass",surinam grass; [5],0
same,"Plant response rating, B. signalgrass",surinam grass; [6],0
same,"Plant response rating, Crabgrass",crabgrass; [1],0
same,Crabgrass plant response rating,crabgrass; [11],0
same,Crabgrass plant response rating (0 to 10 scale),"crabgrass; Preemergence, Rate 125 g/ha",0
same,Crabgrass plant response rating,crabgrass; [2],3
same,Crabgrass plant response rating,crabgrass; [3],5
same,Crabgrass plant response rating,crabgrass; [4],0
same,"Plant response rating, Crabgrass",crabgrass; [5],0
same,"Plant response rating, Crabgrass",crabgrass; [6],2
same,"Plant response rating, Velvetleaf",velvetleaf; [1],0
same,Velvetleaf plant response rating,velvetleaf; [11],0
same,Velvetleaf plant response rating (0 to 10 scale),"velvetleaf; Preemergence, Rate 125 g/ha",0
same,Velvetleaf plant response rating,velvetleaf; [2],0
same,Velvetleaf plant response rating,velvetleaf; [3],0
same,Velvetleaf plant response rating,velvetleaf; [4],0
same,"Plant response rating, Velvetleaf",velvetleaf; [5],0
same,"Plant response rating, Velvetleaf",velvetleaf; [6],0
same,"Plant response rating, Blackgrass",blackgrass; [1],1
same,Blackgrass plant response rating,blackgrass; [11],0
same,Blackgrass plant response rating (0 to 10 scale),"blackgrass; Preemergence, Rate 125 g/ha",0
same,Blackgrass plant response rating,blackgrass; [2],4
same,Blackgrass plant response rating,blackgrass; [3],7
same,Blackgrass plant response rating,blackgrass; [4],0
same,"Plant response rating, Blackgrass",blackgrass; [5],5
same,"Plant response rating, Blackgrass",blackgrass; [6],5
same,Ducksalad plant response rating,duck salad; [7],0
same,Ducksalad plant response rating,duck salad; [8],0
same,Ducksalad plant response rating,duck salad; [9],0
same,Ducksalad plant response rating,duck salad; [10],0
same,"Plant response rating, Nutsedge",purple nutsedge; [1],0
same,Nutsedge plant response rating,purple nutsedge; [11],0
same,Nutsedge plant response rating (0 to 10 scale),"purple nutsedge; Preemergence, Rate 125 g/ha",0
same,Nutsedge plant response rating,purple nutsedge; [2],0
same,Nutsedge plant response rating,purple nutsedge; [3],0
same,Nutsedge plant response rating,purple nutsedge; [4],0
same,"Plant response rating, Nutsedge",purple nutsedge; [5],0
same,"Plant response rating, Nutsedge",purple nutsedge; [6],0
same,Barnyardgrass plant response rating,bamyardgrass; [7],0
same,Barnyardgrass plant response rating,bamyardgrass; [8],0
same,Barnyardgrass plant response rating,bamyardgrass; [9],0
same,Barnyardgrass plant response rating,bamyardgrass; [10],0
same,"Plant response rating, Wheat",wheat; [1],0
same,Wheat plant response rating,wheat; [11],0
same,Wheat plant response rating (0 to 10 scale),"wheat; Preemergence, Rate 125 g/ha",0
same,Wheat plant response rating,wheat; [2],0
same,Wheat plant response rating,wheat; [3],0
same,Wheat plant response rating,wheat; [4],0
same,"Plant response rating, Wheat",wheat; [5],0
same,"Plant response rating, Wheat",wheat; [6],0
same,"Plant response rating, Morningglory",morningglory; [1],8
same,Morningglory plant response rating,morningglory; [11],0
same,Morningglory plant response rating (0 to 10 scale),"morningglory; Preemergence, Rate 125 g/ha",0
same,Morningglory plant response rating,morningglory; [2],0
same,Morningglory plant response rating,morningglory; [3],4
same,Morningglory plant response rating,morningglory; [4],7
same,"Plant response rating, Morningglory",morningglory; [5],10
same,"Plant response rating, Morningglory",morningglory; [6],10
same,"Plant response rating, Giant foxtail",giant foxtail; [1],0
same,Giant foxtail plant response rating,giant foxtail; [11],0
same,Giant foxtail plant response rating (0 to 10 scale),"giant foxtail; Preemergence, Rate 125 g/ha",5
same,Giant foxtail plant response rating,giant foxtail; [2],8
same,Giant foxtail plant response rating,giant foxtail; [3],9
same,Giant foxtail plant response rating,giant foxtail; [4],0
same,"Plant response rating, Giant foxtail",giant foxtail; [5],0
same,"Plant response rating, Giant foxtail",giant foxtail; [6],1
same,"Plant response rating, Bedstraw",bedstraw; [1],1
same,Bedstraw plant response rating,"bedstraw; Preemergence, scale of 0 to 10 where 0 is no effect and 10 is complete control",0
same,Bedstraw plant response rating (0 to 10 scale),"bedstraw; Preemergence, Rate 125 g/ha",0
same,Bedstraw plant response rating,"bedstraw; Postemergence, scale 0 to 10 (0 no effect, 10 complete control)",0
same,"Plant response rating, Bedstraw",bedstraw; [5],4
